From US8471063B2, “Michael systems as transglutaminase inhibitors” (Zedira GmbH, priority 2006, dated 2013) come the findings set out here.

*1 amine or outer side, *2 acyl side, *3 side chain or, on linkers, in order; H or OH if unused. Where a SMILES comes first, the peptide text is derived from it. [ ]: non-standard residue; d: D form. ξ: configuration not given here. X2 = COC(=O)/C=C/CC[C@H](N[*:1])C(=O)[*:2]; Ile(3ξ) = CCC(C)[C@H](N)C(=O)O

What all share (type): biochemical
In test [1] the target is T1, TG1 (Homo sapiens, UniProt P22735).
T1 sequence (P22735 1-817): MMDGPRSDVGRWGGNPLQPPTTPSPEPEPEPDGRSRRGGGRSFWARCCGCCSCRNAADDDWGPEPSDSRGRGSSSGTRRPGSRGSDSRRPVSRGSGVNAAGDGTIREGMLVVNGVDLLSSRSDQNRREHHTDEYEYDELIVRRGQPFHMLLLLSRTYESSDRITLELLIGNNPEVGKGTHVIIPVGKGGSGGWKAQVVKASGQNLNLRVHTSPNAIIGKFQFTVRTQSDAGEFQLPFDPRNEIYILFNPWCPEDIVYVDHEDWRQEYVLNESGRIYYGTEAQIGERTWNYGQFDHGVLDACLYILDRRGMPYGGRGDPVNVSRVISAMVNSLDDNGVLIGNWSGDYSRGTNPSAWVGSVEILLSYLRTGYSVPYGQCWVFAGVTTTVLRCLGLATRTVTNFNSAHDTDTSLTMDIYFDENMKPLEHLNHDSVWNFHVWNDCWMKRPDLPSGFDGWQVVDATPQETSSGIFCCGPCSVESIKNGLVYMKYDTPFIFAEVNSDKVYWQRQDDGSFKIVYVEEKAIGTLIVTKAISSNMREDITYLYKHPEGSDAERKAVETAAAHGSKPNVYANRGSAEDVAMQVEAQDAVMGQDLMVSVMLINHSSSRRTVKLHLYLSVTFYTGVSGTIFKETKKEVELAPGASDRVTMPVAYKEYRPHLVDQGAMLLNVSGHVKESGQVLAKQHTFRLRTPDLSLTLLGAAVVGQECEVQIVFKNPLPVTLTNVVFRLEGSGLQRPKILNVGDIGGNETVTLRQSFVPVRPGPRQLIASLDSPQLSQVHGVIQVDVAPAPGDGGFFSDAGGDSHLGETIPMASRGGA
The test is described as follows: Transglutaminase inhibition, IC50 at TG1.

Test [2] deals with T2, recombinant human tissue transglutaminase (His6-rh-TG2) (Homo sapiens, UniProt P21980).
T2 sequence (P21980 1-687): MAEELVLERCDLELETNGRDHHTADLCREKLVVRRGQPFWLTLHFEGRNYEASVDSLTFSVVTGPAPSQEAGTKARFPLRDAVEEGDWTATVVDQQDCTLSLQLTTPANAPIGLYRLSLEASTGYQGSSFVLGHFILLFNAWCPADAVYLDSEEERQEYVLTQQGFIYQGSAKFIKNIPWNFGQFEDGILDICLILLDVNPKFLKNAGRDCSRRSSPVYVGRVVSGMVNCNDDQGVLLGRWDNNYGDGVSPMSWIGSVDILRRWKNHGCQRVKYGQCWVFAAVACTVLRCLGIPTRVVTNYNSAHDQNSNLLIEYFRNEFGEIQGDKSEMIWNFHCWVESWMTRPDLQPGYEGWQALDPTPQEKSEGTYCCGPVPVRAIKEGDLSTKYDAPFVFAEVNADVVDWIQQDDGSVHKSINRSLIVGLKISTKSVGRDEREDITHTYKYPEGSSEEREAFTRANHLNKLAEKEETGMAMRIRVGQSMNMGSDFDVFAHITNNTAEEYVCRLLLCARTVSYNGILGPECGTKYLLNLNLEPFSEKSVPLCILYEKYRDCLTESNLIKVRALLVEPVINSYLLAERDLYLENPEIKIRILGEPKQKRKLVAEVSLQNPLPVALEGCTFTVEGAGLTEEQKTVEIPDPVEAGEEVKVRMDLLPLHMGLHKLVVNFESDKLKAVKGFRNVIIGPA
The test is described as follows: Inactivation of human tissue transglutaminase, fluorescence assay, IC50. As to conditions: 5 min preincubation, 37° C. On the procedure: 250 μg of lyophilized his-tagged recombinant human tissue transglutaminase (His6-rh-TG2) are reconstituted by the addition of 150 μl of water (resulting buffer 50 mM of NaH2PO4, 150 mM of NaCl, pH=8).
A 10 mM inhibitor stock solution in DMSO is prepared and diluted with buffer (50 mM of Tris-HCl, 10 mM of CaCl2, 5 mM of DTT, pH=7.5, respectively) to the 20-fold of the concentration desired for the inhibition mixture (at least 1/50 dilution resulting in 2% DMSO concentration).
900 μl of an assay solution composed of 55.56 mM of Tris, 11.11 mM of CaCl2, 0.11% PEG8000, 5.56 mM of DTT, 5.56 mM of glycine methyl ester and 50 μM of Abz-APE(CAD-DNP)QEA-OH, (patent number:), pH=7.5 are placed in a cuvette and brought to a temperature of 37° C. in the measuring cell of a spectrophotometer. 50 μl of the respective inhibitor solution are added to said solution (resulting in a concentration of less than 0.2% of DMSO in the mixture).
7 μl of the transglutaminase solution reconstituted above are diluted with 51 μl of buffer (50 mM of Tris, 100 mM of NaCl, 5 mM of DTT, pH=7.5). 50 μl of said enzyme solution (10 μg His6-rhTG2) are added to the assay solution containing the respective inhibitor concentration. The mixture is incubated for 5 min at 37° C. before the measurement is performed. λexc=313 nm and λem=418 nm, 15 min)
The resulting enzyme activity was measured by analyzing the slope of the straight line obtained by the increase in fluorescence.
DMSO is used instead of inhibitor stock solution in order to determine the non-inhibited enzyme activity. IC50 values are determined by plotting the resulting enzyme activity against the logarithm of the inhibitor concentration. IC50 is defined as the concentration of an inhibitor at which enzyme activity is reduced to 50% after 5 min of preincubation.

The target of test [3] is T3, FXIII (Homo sapiens, UniProt P00488).
T3 sequence (P00488 1-732): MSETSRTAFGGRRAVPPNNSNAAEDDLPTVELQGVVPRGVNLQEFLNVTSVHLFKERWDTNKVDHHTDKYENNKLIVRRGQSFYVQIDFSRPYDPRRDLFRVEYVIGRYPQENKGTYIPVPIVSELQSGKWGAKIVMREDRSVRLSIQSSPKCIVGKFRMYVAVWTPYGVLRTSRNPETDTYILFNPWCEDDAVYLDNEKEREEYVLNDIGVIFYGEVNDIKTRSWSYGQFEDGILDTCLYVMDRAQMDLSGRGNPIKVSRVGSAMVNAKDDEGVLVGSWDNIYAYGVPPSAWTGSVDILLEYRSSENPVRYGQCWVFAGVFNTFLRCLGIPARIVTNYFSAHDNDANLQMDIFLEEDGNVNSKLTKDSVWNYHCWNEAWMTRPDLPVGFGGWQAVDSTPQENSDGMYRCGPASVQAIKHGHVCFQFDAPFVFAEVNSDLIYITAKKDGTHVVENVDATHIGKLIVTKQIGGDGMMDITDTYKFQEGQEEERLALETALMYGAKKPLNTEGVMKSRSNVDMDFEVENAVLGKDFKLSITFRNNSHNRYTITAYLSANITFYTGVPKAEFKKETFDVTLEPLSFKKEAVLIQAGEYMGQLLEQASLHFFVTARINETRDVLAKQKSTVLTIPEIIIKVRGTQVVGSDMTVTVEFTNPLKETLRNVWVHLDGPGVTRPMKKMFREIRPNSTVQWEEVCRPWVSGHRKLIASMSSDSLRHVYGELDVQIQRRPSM
The test is described as follows: Transglutaminase inhibition, IC50 at FXIII.

One may read the IC50 as the midpoint of a concentration-inhibition curve. Take `CC(C)CC(NC(=O)C1CCCCN1C(=O)C(Cc1ccccc1)NC(=O)C(CCC=CC(=O)OCc1ccccc1)NC(=O)OCc1ccccc1)C(N)=O` [Compound 3.2.8, N^α-benzyloxycarbonyl)-{[(E)-(L)-6-amino-hept-2-ene-dicarboxylic acid]-1-benzoyl}-L-phenylalaninyl-L-homoprolinyl-L-leucinyl amide]: the concentration for half-maximal inhibition (IC50) in test [1] (Table 2) was 825 nM; in test [2] (Table 2) it was 130 nM; in test [3] (Table 2), greater than 100000 nM.
On to `CCOC(=O)C(=O)/C=C/CC[C@H](NC(=O)OCc1ccccc1)C(=O)N[C@@H](Cc1ccccc1)C(=O)OC` [Compound 3.2.9], for which the IC50 in test [1] (Table 2) is 530 nM; in test [2] (Table 2) it was 3800 nM; in test [3] (Table 2), greater than 100000 nM.
As to `COC(=O)/C=C/CC[C@H](NC(=O)[C@H](CC(N)=O)NC(C)=O)C(=O)N[C@@H](CCC(=O)O)C(=O)N[C@@H](C)C(=O)N[C@H](C(=O)OC)C(C)C` [Compound 7, N^α-acetyl-L-asparaginyl-{[(E)-(L)-6-amino-hept-2-ene-dicarboxylic acid]-1-methanoyl}-L-glutamyl-L-alaninyl-L-valine methyl ester] (Ac-N[X2]EAV-OMe), the results for the 50% inhibitory concentration (IC50) in test [1] (Table 1), in test [2] (Table 1) and in test [3] (Table 1) were greater than 50000 nM, greater than 50000 nM and 2000 nM, respectively.
For `CCC(C)[C@H](NC(=O)[C@@H](NC(=O)[C@H](CC(C)C)NC(=O)[C@H](CO)NC(=O)[C@H](CC/C=C/C(=O)OC)NC(=O)CNC(=O)[C@@H]1CCCN1C(=O)CNC(=O)[C@H](CC(C)C)NC(C)=O)C(C)C)C(=O)NCC(=O)OC` (stereo partly drawn) [Compound 8, N^α-acetyl-L-leucinyl-glycinyl-L-prolinyl-glycinyl-{[(E)-(L)-6-amino-hept-2-ene-dicarboxylic acid]-1-ethanoyl}-L-serinyl-L-leucinyl-L-valinyl-L-isoleucinyl-glycine methyl ester] (Ac-LGPG[X2]SLV[Ile(3ξ)]G-OMe), the values for the IC50 in test [1] (Table 1), in test [2] (Table 1) and in test [3] (Table 1) were greater than 50000 nM, greater than 50000 nM and 500 nM, respectively.
